Columns and labels:
P-gp = molecular target: T1, P-gp (Homo sapiens, UniProt P08183); test: MDR1-MDCK P-gp transwell bidirectional transport assay; format: in vitro ADME; settings: 10 μM, 90 min; for Papp A→B at 90 min, 10 µM / Papp B→A at 90 min, 10 µM / efflux ratio at 90 min, 10 µM: dog, MDCK-MDR1, MDR1-MDCK; for efflux ratio at 90 min, 10 µM: read-out: ER (efflux ratio) (converted)
T1 construct: host or cells: MDCK (MDR1-MDCK)
Experimental: A novel compound collection composed of complex and diverse compounds derived from natural products, termed “Complexity-to-Diversity Collection” was employed. […] The CtD compounds were evaluated by the efflux pump and their permeability using the P-gp transwell assay using adapted and optimized known protocols. Compound transport across epithelial cells overexpressing P-gp from basolateral-to-apical and apical-to-basolateral directions were quantified to calculate permeability and efflux ratio.
P-gp transwell bidirectional transport assays. Unless noted otherwise, the transport assay was performed in triplicate in batches of 16 or 24 test compounds, with each batch containing quinidine as a substrate control and propranolol as a non-substrate control. MDR1-MDCK cells were plated at a density of 300,000 cells/cm^2 onto 96-well Falcon™ Multiwell Insert System with 1 µm pore polycarbonate filters with angled-bottom receiver plates (Coming) and were fed with the cell growth medium on day 2.
The donor solution was prepared by adding 1 mM DMSO stocks of compounds to make the final concentration […], and the receiver solution was prepared with equivalent volume of DMSO to make 1% DMSO in final assay chamber volumes.
After 80-96 hours since seeding, the growth media on both sides was aspirated. To the transwell plate (apical side), 50 μL of receiver and donor solutions prepared on a 96-well plate were added, and it was placed on top of a separate angled-bottom 96-well plate (basolateral side) containing 260 μL of receiver and donor solutions.
Following 90 minutes of incubation at 37° C. with shaking at 90 rpm, 20 μL aliquot of samples were taken from both the donor and receiver chambers, and the apical and basolateral sides. Aliquots of 4 test compounds were pooled for each category: apical-donor, apical-receiver, basolateral-donor, basolateral-receiver. To measure CO and mass balance, initial donor samples from both apical and basolateral side were set aside from the assay plate. Acetonitrile twice the volume of pooled samples was added and mixed thoroughly, and precipitated proteins were removed by centrifugation at 20,000 r.c.f for 10 minutes.
To ascertain the MDCK monolayer integrity, the solution on apical side contained 100 µM Lucifer Yellow (Millipore-Sigma). After 90 minutes of compound transport, Lucifer Yellow concentration in the basal well was measured using SpectraMax M3 (Molecular Devices) set to an excitation wavelength of 430 nm and an emission wavelength of 540 nm.
Samples were analyzed with the 5500 QTRAP LC/MS/MS system (AB Sciex) with a 1200 series HPLC system (Agilent Technologies) including a degasser, an autosampler, and a binary pump. The liquid chromatography separation was performed on an Agilent SB-Aq column (4.6×50 mm, 5 μm) (Agilent Technologies) with mobile phase A (0.1% formic acid in water) and mobile phase B (0.1% formic acid in acetonitrile). The flow rate was 0.3 ml min^−1. The linear gradient was optimized for each compound. The autosampler was set at 5° C. The injection volume was 15 μL. Mass spectra were acquired with both positive electrospray ionization at the ion spray voltage of 5,500 V and negative electrospray ionization at the ion spray voltage of −4,500 V. The source temperature was 450° C. The curtain gas, ion source gas 1, and ion source gas 2 were 33, 50 and 65, respectively. Multiple reaction monitoring was used to quantify metabolites.
Efflux data calculations.

A375 cells = test: 72-hour cell viability assay (Alamar Blue), A375; format: cell-based, human; settings: for IC50: 72-hour incubation, Alamar Blue, V600E BRAF; for Emax: A-375, A375, 72-hour incubation
Experimental: Cell Culture and reagents. All cell lines were grown in a 37° C., 5% CO2, humidified environment, in media containing 1% penicillin/streptomycin. Cell culture conditions are as follows: MDCK cells transfected with MDR1 (or ABCB1) were obtained from the Netherlands Cancer Institute (Amsterdam, The Netherlands) and maintained in DMEM with 10% fetal bovine serum (FBS, Gemini). Traditional cell lines A375, CHL-1, B16F10, and U118MG were grown in DMEM with 10% FBS, SK-MEL-28, U87 and T98G in EMEM with 10% FBS, AM-38 in EMEM with 20% HI-FBS (Gibco), HT29 in McCoy's 5A with 10% FBS, HCT116 in RPMI with 10% FBS. Compounds were dissolved in DMSO (1% final concentration, Sigma-Aldrich) for cell culture studies.
Cell viability assays. Cells were harvested, seeded in a 96-well plate and allowed to adhere overnight. Compound was added to each well in DMSO (1% final concentration). Cells were incubated for 72 hours before viability was assessed by the Alamar Blue Assay. Raptinal ([…]) was used as a dead control.

T1 sequence (P08183 whole entry): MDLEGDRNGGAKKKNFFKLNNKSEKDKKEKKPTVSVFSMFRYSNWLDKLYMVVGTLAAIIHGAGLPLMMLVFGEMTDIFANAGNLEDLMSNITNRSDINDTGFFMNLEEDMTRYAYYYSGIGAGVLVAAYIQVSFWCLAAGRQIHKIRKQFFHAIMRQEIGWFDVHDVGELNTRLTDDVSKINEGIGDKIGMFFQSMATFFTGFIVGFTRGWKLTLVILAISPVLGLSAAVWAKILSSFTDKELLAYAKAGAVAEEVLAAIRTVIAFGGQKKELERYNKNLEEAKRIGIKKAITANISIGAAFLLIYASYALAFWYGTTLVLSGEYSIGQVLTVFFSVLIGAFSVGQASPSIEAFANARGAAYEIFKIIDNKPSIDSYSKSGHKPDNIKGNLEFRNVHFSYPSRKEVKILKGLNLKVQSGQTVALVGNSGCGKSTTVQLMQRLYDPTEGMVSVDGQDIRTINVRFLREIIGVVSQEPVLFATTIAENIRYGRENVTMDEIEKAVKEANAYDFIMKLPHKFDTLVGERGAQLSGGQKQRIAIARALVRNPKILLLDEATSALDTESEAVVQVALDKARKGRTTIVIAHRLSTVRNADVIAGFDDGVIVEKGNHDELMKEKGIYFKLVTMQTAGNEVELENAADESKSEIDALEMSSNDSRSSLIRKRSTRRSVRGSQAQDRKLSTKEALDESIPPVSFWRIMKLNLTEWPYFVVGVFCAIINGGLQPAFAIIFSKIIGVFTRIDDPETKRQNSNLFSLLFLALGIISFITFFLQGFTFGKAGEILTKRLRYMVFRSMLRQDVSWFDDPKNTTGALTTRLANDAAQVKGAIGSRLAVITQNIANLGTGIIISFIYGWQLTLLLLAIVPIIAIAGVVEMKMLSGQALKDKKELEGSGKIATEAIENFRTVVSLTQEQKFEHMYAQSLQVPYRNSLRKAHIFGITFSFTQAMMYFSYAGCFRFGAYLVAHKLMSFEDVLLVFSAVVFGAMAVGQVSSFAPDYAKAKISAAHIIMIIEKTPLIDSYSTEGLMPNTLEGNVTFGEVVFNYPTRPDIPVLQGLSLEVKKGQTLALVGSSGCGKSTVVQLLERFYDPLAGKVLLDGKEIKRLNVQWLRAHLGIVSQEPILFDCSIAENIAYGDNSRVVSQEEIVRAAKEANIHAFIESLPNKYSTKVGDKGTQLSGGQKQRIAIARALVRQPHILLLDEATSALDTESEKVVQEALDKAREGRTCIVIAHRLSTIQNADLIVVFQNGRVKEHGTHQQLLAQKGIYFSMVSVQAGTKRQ

Row | SMILES | Papp A→B at 90 min, 10 µM (P-gp) | Papp B→A at 90 min, 10 µM (P-gp) | efflux ratio at 90 min, 10 µM (P-gp) | IC50 (A375 cells; Homo sapiens, A-375, 72 h) | Papp A-B (P-gp; MDR1-MDCK) | Papp B-A (P-gp; MDR1-MDCK) | IC50 (A375 cells) | ER (efflux ratio) (P-gp; MDR1-MDCK) | Emax (A375 cells; Homo sapiens)
1 | CC(C)(C)c1nc(-c2c(F)ccc(NS(=O)(=O)c3cc(C(F)(F)F)ccc3C(F)(F)F)c2F)c(-c2ccnc(N)n2)s1 [6-145, N-(3-(5-(2-aminopyrimidin-4-yl)-2-(tert-butyl)thiazol-4-yl)-2,4-difluorophenyl)-2,5-bis(trifluoromethyl)benzenesulfonamide] | 0.94 ± 0.05 ×10⁻⁶ cm/s | 5.66 ± 0.19 ×10⁻⁶ cm/s | 6.05 ± 0.5 | > 3000 nM | – | – | – | – | –
2 | CC(C)(C)c1nc(-c2cccc(NS(=O)(=O)c3cc(C(F)(F)F)ccc3C(F)(F)F)c2F)c(-c2ccnc(N)n2)s1 [6-163, N-(3-(5-(2-aminopyrimidin-4-yl)-2-(tert-butyl)thiazol-4-yl)-2-fluorophenyl)-2,5-bis(trifluoromethyl)benzenesulfonamide] | – | – | – | > 3000 nM | – | – | – | – | –
3 | CC(C)(C)c1nc(-c2cccc(NS(=O)(=O)c3ccc(F)cc3C(F)(F)F)c2F)c(-c2ccnc(N)n2)s1 [6-166, N-(3-(5-(2-aminopyrimidin-4-yl)-2-(tert-butyl)thiazol-4-yl)-2-fluorophenyl)-4-fluoro-2-(trifluoromethyl)benzenesulfonamide] | – | – | – | > 3000 nM | – | – | – | – | –
4 | CC(C)(C)c1nc(-c2c(F)ccc(NS(=O)(=O)c3ccc(F)cc3C(F)(F)F)c2F)c(-c2ccnc(N)n2)s1 [6-167, N-(3-(5-(2-aminopyrimidin-4-yl)-2-(tert-butyl)thiazol-4-yl)-2,4-difluorophenyl)-4-fluoro-2-(trifluoromethyl)benzenesulfonamide] | – | – | – | > 3000 nM | – | – | – | – | –
5 | CC(C)(C)c1nc(-c2cccc(NS(=O)(=O)c3ccc(F)cc3C(F)(F)F)c2F)c(-c2ccnc(NCCCCC(=O)O)n2)s1 [6-181, 5-((4-(2-(tert-butyl)-4-(2-fluoro-3-((4-fluoro-2-(trifluoromethyl)phenyl)sulfonamido)phenyl)thiazol-yl)pyrimidin-2-yl)amino)pentanoic acid] | – | – | – | > 50000 nM | – | – | – | – | –
6 | CC(C)NCC(O)COc1cccc2ccccc12 (stereo not shown) [Propranolol, reference compound] | – | – | 1.18 | – | – | – | – | – | –
7 | C=C[C@H]1C[N@@]2CC[C@H]1C[C@@H]2[C@@H](O)c1ccnc2ccc(OC)cc12 [Quinidine, reference compound] | – | – | 8.09 | – | – | – | – | – | –

Further lines, with some results ahead:

Row | Papp A→B at 90 min, 10 µM (P-gp) | Papp B→A at 90 min, 10 µM (P-gp) | efflux ratio at 90 min, 10 µM (P-gp) | IC50 (A375 cells; Homo sapiens, A-375, 72 h) | Papp A-B (P-gp; MDR1-MDCK) | Papp B-A (P-gp; MDR1-MDCK) | IC50 (A375 cells) | ER (efflux ratio) (P-gp; MDR1-MDCK) | SMILES | Emax (A375 cells; Homo sapiens)
8 | 1.58 ± 0.335 ×10⁻⁶ cm/s | 1.45 ± 0.077 ×10⁻⁶ cm/s | 0.984 ± 0.164 | > 1000 nM | – | – | – | – | CC(C)(C)c1nc(-c2cccc(NS(=O)(=O)c3c(F)cccc3F)c2F)c(-c2ccnc(Nc3ccc(C(=O)O)cc3)n2)s1 [6-77, 4-((4-(2-(tert-butyl)-4-(3-((2,6-difluorophenyl)sulfonamido)-2-fluorophenyl)thiazol-5-yl)pyrimidin-2-yl)amino)benzoic acid] | –
9 | 1.09 ± 0.097 ×10⁻⁶ cm/s | 2.17 ± 0.371 ×10⁻⁶ cm/s | 1.96 ± 0.22 | 115 nM | 10.89 ± 0.97 nm/s | 21.65 ± 3.71 nm/s | 115 ± 9.85 nM | – | CC(C)(C)c1nc(-c2cccc(NS(=O)(=O)c3c(F)cccc3F)c2F)c(-c2ccnc(NCCCCC(=O)O)n2)s1 [6-83, 5-((4-(2-(tert-butyl)-4-(3-((2,6-difluorophenyl)sulfonamido)-2-fluorophenyl)thiazol-5-yl)pyrimidin-2-yl)amino)pentanoic acid] | 65%
10 | 0.709 ± 0.045 ×10⁻⁶ cm/s | 2.26 ± 0.32 ×10⁻⁶ cm/s | 3.22 ± 0.54 | 474 ± 11.8 nM | – | – | – | – | CC(C)(C)c1nc(-c2cccc(NS(=O)(=O)c3c(F)cccc3F)c2F)c(-c2ccnc(N[C@H]3CC[C@@H](C(=O)O)CC3)n2)s1 [6-85, (1s,4s)-4-((4-(2-(tert-butyl)-4-(3-((2,6-difluorophenyl)sulfonamido)-2-fluorophenyl)thiazol-5-yl)pyrimidin-2-yl)amino)cyclohexane-1-carboxylic acid] | –
11 | 0.844 ± 0.214 ×10⁻⁶ cm/s | 0.445 ± 0.04 ×10⁻⁶ cm/s | 0.61 ± 0.16 | 628 ± 105 nM | – | – | 628 ± 105 nM | 0.607 ± 0.16 | CC(C)(C)c1nc(-c2cccc(NS(=O)(=O)c3c(F)cccc3F)c2F)c(-c2ccnc(NCCCC(=O)O)n2)s1 [6-86, 4-((4-(2-(tert-butyl)-4-(3-((2,6-difluorophenyl)sulfonamido)-2-fluorophenyl)thiazol-5-yl)pyrimidin-2-yl)amino)butanoic acid] | 65%
12 | 2.24 ± 0.126 ×10⁻⁶ cm/s | 1.25 ± 0.436 ×10⁻⁶ cm/s | 0.56 ± 0.18 | 166 ± 4.09 nM | 22.37 ± 1.26 nm/s | 12.51 ± 4.36 nm/s | 166 ± 4.09 nM | – | CC(C)(C)c1nc(-c2cccc(NS(=O)(=O)c3c(F)cccc3F)c2F)c(-c2ccnc(N[C@H]3CC[C@H](C(=O)O)CC3)n2)s1 [6-89, (1r,4r)-4-((4-(2-(tert-butyl)-4-(3-((2,6-difluorophenyl)sulfonamido)-2-fluorophenyl)thiazol-5-yl)pyrimidin-2-yl)amino)cyclohexane-1-carboxylic acid] | –
13 | 0.493 ± 0.148 ×10⁻⁶ cm/s | 0.626 ± 0.238 ×10⁻⁶ cm/s | 1.3 ± 0.38 | > 1000 nM | – | – | – | – | CC(C)(C)c1nc(-c2cccc(NS(=O)(=O)c3c(F)cccc3F)c2F)c(-c2ccnc(N[C@@H]3CC[C@H](C(=O)O)C3)n2)s1 [6-91, (1S,3R)-3-((4-(2-(tert-butyl)-4-(3-((2,6-difluorophenyl)sulfonamido)-2-fluorophenyl)thiazol-5-yl)pyrimidin-2-yl)amino)cyclopentane-1-carboxylic acid] | –
14 | 0.868 ± 0.021 ×10⁻⁶ cm/s | 0.741 ± 0.156 ×10⁻⁶ cm/s | 0.86 ± 0.19 | > 1000 nM | – | – | – | – | CC(C)(C)c1nc(-c2cccc(NS(=O)(=O)c3c(F)cccc3F)c2F)c(-c2ccnc(CCC(=O)O)n2)s1 [6-97, 3-(4-(2-(tert-butyl)-4-(3-((2,6-difluorophenyl)sulfonamido)-2-fluorophenyl)thiazol-5-yl)pyrimidin-2-yl)propanoic acid] | –
15 | – | 0.325 ± 0.124 ×10⁻⁶ cm/s | – | 1270 ± 54.4 nM | – | – | – | – | CC(C)(C)c1nc(-c2cccc(NS(=O)(=O)c3c(F)cccc3F)c2F)c(-c2ccnc(NCCCCc3nnn[nH]3)n2)s1 [6-121, N-(3-(5-(2-((4-(1H-tetrazol-5-yl)butyl)amino)pyrimidin-4-yl)-2-(tert-butyl)thiazol-4-yl)-2-fluorophenyl)-2,6-difluorobenzenesulfonamide] | 60%
16 | 0.449 ± 0.008 ×10⁻⁶ cm/s | 1.03 ± 0.166 ×10⁻⁶ cm/s | 1.93 ± 0.08 | 1580 ± 458 nM | – | – | – | – | CC(C)(C)c1nc(-c2cccc(NS(=O)(=O)c3c(F)cccc3F)c2F)c(-c2ccnc(CCCCC(=O)O)n2)s1 [6-131, 5-(4-(2-(tert-butyl)-4-(3-((2,6-difluorophenyl)sulfonamido)-2-fluorophenyl)thiazol-5-yl)pyrimidin-2-yl)pentanoic acid] | 60%
17 | – | – | – | 1750 ± 21.9 nM | – | – | – | – | CC(C)(C)c1nc(-c2cccc(NS(=O)(=O)c3c(F)cccc3F)c2F)c(-c2ccnc(CCCCCC(=O)O)n2)s1 [6-193, 6-(4-(2-(tert-butyl)-4-(3-((2,6-difluorophenyl)sulfonamido)-2-fluorophenyl)thiazol-5-yl)pyrimidin-2-yl)hexanoic acid] | 60%
